Data reported in paper PMC8268581, “Identification of 3,4-Dihydro-2H,6H-pyrimido[1,2-c][1,3]benzothiazin-6-imine Derivatives as Novel Selective Inhibitors of Plasmodium falciparum Dihydroorotate Dehydrogenase” (International Journal of Molecular Sciences, 2021).

Assays:
[1] = Cytotoxicity assay, DLD-1 (Cell Counting Kit-8); assay type: cell-based; conditions: DLD-1 human colorectal adenocarcinoma cells
Protocol: Human dermal fibroblast cells (HDF, Zenbio, Inc., Durham, NC, USA) were cultured in Dulbecco’s Modified Eagle Medium/Nutrient Mixture F-12 medium (DMEM/F12, Gibco), human pancreatic carcinoma cells (PANC-1, DS Pharma Biomedical, Co., Ltd.) were cultured in DMEM (Gibco), and human colorectal adenocarcinoma cells (DLD-1, Taiho Pharmaceutical Company) were cultured in RPMI-1640 medium (FUJIFILM Wako Pure Chemicals). The culture mediums were supplemented with 10% (v/v) heat-inactivated fetal bovine serum (Gibco) and the cells were maintained at 37 °C under 5% CO2.
HDF, PANC-1, and DLD-1 were seeded at 2.5 × 10^4 cells/well on a 96-well plate and incubated at 37 °C under 5% CO2 overnight. The cells were then washed with PBS and the medium was replaced with 99 µL of fresh media. Then, 1 µL of the compounds or DMSO was added to the respective wells. As controls, wells containing 1% (v/v) DMSO in column 1 and wells containing only the culture medium in column 12 were used as the negative and positive controls, respectively. After 48 h of incubation, the cells were washed with PBS, and 99 µL of fresh media was replaced, followed by the addition of 10 µL of Cell Counting Kit-8 (Dojindo) to each well. After 3 h of incubation, the absorbance was measured at 450 nm using a SpectraMax®® Paradigm®® Multi-Mode microplate Reader. The calculation of cell viability in the test well was based on the absorbance of control wells according to the manufacturer’s protocol. The mean of quadruplet values was used to calculate the CC50 using GraphPad Prism 8.0 software.

[2] = molecular target: mammalian mitochondrial complexes II–III (Bos taurus, UniProt P00157+P35720+Q3T189+Q95123); assay: succinate-cytochrome c reductase (complexes II–III) activity assay; assay type: biochemical; conditions: bovine heart mitochondria, range tested 0.0007 to 22.7 µM; read-out: IC50 Mammalian Mitochondrial CII–III
Protocol: Bovine heart mitochondria were prepared as previously described. The NADH-cytochrome c reductase (complexes I–III) and succinate-cytochrome c reductase (complexes II–III) activities were assayed in 384-well plates following an established protocol with small modifications. Complex I–III activity was assayed in a reaction mix containing 50 mM phosphate buffer pH 7.4, 2 mM KCN, 200 µM cytochrome c (cytochrome c from horse heart, Nacalai tesque), and 15 µg/mL mitochondria. Plates containing 1 µL serial dilutions of PfDHODH inhibitors were prepared and mixed with 38 µL of the reaction mix, as described above. The reaction was started by the addition of 5 µL of 2.6 mM NADH, and the assay was performed as described for PfDHODH, but at 550 nm and with 15 min of incubation. Complex II–III activity was assayed similarly to complex I–III activity but with 100 µM cytochrome c and 25 µg/mL mitochondria, and the reaction was started by 10 mM succinate. For both assays, DMSO and 5 µM ascochlorin were used as negative and positive controls, respectively. Assays were performed in triplicate.

P. falciparum 3D7 = assay: In vitro antimalarial assay (PfLDH/diaphorase); assay type: cell-based; conditions: Plasmodium falciparum, growth inhibition, 72 h, 0.0003 to 10 µM, read-out: EC50 Pf3D7
Protocol: This assay was conducted using human red blood cells (RBC) following the guidelines of the ethics committee of Nagasaki University (permission no. 19). Human RBC was obtained from the Japanese Red Cross Society. The P. falciparum 3D7 strain was cultured in 2% hematocrit type O human RBC in RPMI-1640 medium (Gibco) supplemented with 23.8 mM sodium bicarbonate (Wako), 50 mg/L hypoxanthine (Wako), 25 mg/L gentamycin (Sigma), and 0.5% (w/v) AlbuMAX®® II (Gibco) under a 5% O2, 5% CO2, and 90% N2 atmosphere at 37 °C. Parasites were synchronized with 5% (w/v) D-sorbitol (Wako).
(§1) Synchronized ring-stage parasites at 0.3% parasitemia and 2% hematocrit were cultured in a 384-well plate at 25 µL with test compounds at a final concentration in the range of 0.0003 to 10 µM with a fixed DMSO concentration of 0.4% (v/v). Parasite growth was monitored by the diaphorase-coupled P. falciparum lactate dehydrogenase (PfLDH) assay, as previously described. After 72 h, 70 µL of the assay solution (150 mM lithium L-lactate (Wako), 0.05 mg/mL 3-acetylpyridine adenine dinucleotide (Oriental Yeast Co., Ltd., Tokyo, Japan), 0.2 mg/mL nitro blue tetrazolium (Wako), 1 unit/mL diaphorase, and 100 mM Tris-HCl pH 8.0) were mixed with the parasite culture and incubated at room temperature for 40 min, and the generated nitro blue formazan was measured at 650 nm using a SpectraMax®® Paradigm®® Multi-Mode Microplate Reader. […] The EC50 was calculated using GraphPad Prism 8.0 software from the mean of quadruplets values.

[3] = system: P. falciparum 3D7 strain expressing the cytosolic yeast DHODH (3D7-yDHODH); assay: Confirmation assay against transgenic parasite 3D7-yDHODH; assay type: cell-based, Plasmodium falciparum; conditions: for activity at 10 µM: 72 h, relative parasite growth at 10 µM compound, read-out: Growth at 10 µM (%) Pf3D7-yDHODH; for susceptibility of Pf3D7-yDHODH parasite (in words): relative parasite growth at 10 µM, compared with wild-type 3D7
Protocol: as §1
The P. falciparum 3D7 strain expressing the cytosolic yeast DHODH (3D7-yDHODH) was prepared as follows. pHHyDHODH-GFP plasmid (Kerafast, Boston, MA, USA) was transfected to the P. falciparum 3D7 strain following the established transfection method. Briefly, 50 µg of plasmid dissolved in cytomix solution (120 mM KCl, 0.15 mM CaCl2, 10 mM K2HPO4/KH2PO4 pH 7.6, 25 mM HEPES-KOH pH 7.6, 2 mM ethylene glycol-bis(β-aminoethyl ether)-N,N,N′,N′-tetraacetic acid (EGTA, Dojindo), and 5 mM magnesium chloride (Wako)) was transfected into the red blood cells by the Gene Pulser Xcell (Bio-Rad). Percoll–sorbitol synchronized parasites were mixed with red blood cells containing plasmid and maintained under 5 nM WR99210 for 2 weeks. The growth of resistant parasites against DSM265 and atovaquone, as PfDHODH and complex III inhibitors respectively, was confirmed by PfLDH/diaphorase assay. A total of 10 µM PfDHODH inhibitors were tested against wild-type 3D7 and 3D7-yDHODH following the method described above in triplicate. The significance of difference between the inhibition of the two parasite strains was evaluated by Student’s t-test (Figure S4).

| Structure (SMILES) | EC50 at 48 h [1] | IC50 [2] | EC50 (P. falciparum 3D7) | activity at 10 µM [3] | susceptibility of Pf3D7-yDHODH parasite (in words) [3] |
| --- | --- | --- | --- | --- | --- |
| N=C1Sc2cc(-c3cccc([N+](=O)[O-])c3)ccc2C2=NCCCN12 [Compound 21] | > 10 µM | > 22.7 µM | 850 ± 120 nM | 103 ± 0.67% | reduced susceptibility |
| N=C1Sc2cc(-c3ccc4c(c3)OCCO4)ccc2C2=NCCCN12 [Compound 4] | > 10 µM | > 22.7 µM | 1070 ± 50 nM | 24 ± 5.76% | – |
| O=[N+]([O-])c1ccccc1-c1ccc2c(c1)SN1CCCN=C21 [Compound 43] | > 10 µM | > 22.7 µM | 1110 ± 80 nM | 31.1 ± 2.38% | reduced susceptibility |
| N=C1Sc2cc(-c3ccc4c(c3)OCO4)ccc2C2=NCCCN12 [Compound 3] | > 10 µM | > 22.7 µM | 1160 ± 20 nM | -0.23 ± 0.01% | – |
| c1ccc2c(-c3ccc4c(c3)SN3CCCN=C43)cccc2c1 [Compound 31] | > 10 µM | > 22.7 µM | 330 ± 10 nM | 0% | – |
| c1ccc(-c2ccc3c(c2)C2=NCCCN2S3)cc1 [Compound 36] | > 10 µM | > 22.7 µM | 4160 ± 90 nM | 32.5 ± 10.1% | – |
| N=C1Sc2cc(-c3ccc(C(F)(F)F)cc3)ccc2C2=NCCCN12 [Compound 15] | > 10 µM | > 22.7 µM | 1000 ± 50 nM | -0.38 ± 0.17% | – |
| COC(=O)c1ccc(-c2ccc3c(c2)SC(=N)N2CCCN=C32)cc1 [Compound 13] | > 10 µM | > 22.7 µM | 1060 ± 10 nM | 70.5 ± 0.73% | reduced susceptibility |
| C#CCOCc1ccc(C(=O)c2ccc(-c3ccc4c(c3)SC(=N)N3CCCN=C43)cc2)cc1 [Compound 20] | > 10 µM | > 22.7 µM | 380 ± 80 nM | 0.45 ± 0.74% | – |
| O=[N+]([O-])c1ccc(-c2ccc3c(c2)SN2CCCN=C32)cc1 [Compound 39] | > 10 µM | > 22.7 µM | 1140 ± 60 nM | 1.48 ± 0.14% | – |
| N=C1Sc2cc(-c3cc4ccccc4o3)ccc2C2=NCCCN12 [Compound 7] | > 10 µM | > 22.7 µM | 340 ± 10 nM | 36.2 ± 1.01% | – |
| N=C1Sc2cc(-c3ccccc3-c3ccccc3)ccc2C2=NCCCN12 [Compound 27] | > 10 µM | > 22.7 µM | 390 ± 50 nM | 0.25 ± 0.04% | – |
| CSc1ccc(-c2ccc3c(c2)SC(=N)N2CCCN=C32)cc1 [Compound 17] | > 10 µM | > 22.7 µM | 1620 ± 560 nM | -0.5 ± 0.01% | – |
| N=C1Sc2cc(-c3ccc(OC(F)(F)F)cc3)ccc2C2=NCCCN12 [Compound 18] | > 10 µM | > 22.7 µM | 370 ± 130 nM | 2.54 ± 0.42% | – |
| CC(C)Oc1cccc(-c2ccc3c(c2)SC(=N)N2CCCN=C32)c1 [Compound 22] | > 10 µM | > 22.7 µM | 900 ± 440 nM | -0.06 ± 0.24% | – |
| N=C1Sc2cc(-c3ccc4ccccc4c3)ccc2C2=NCCCN12 [Compound 1] | > 10 µM | > 22.7 µM | 430 ± 180 nM | -0.62 ± 0.07% | – |
| N=C1Sc2cc(-c3ccc(C(=O)c4ccccc4)cc3)ccc2C2=NCCCN12 [Compound 19] | > 10 µM | > 22.7 µM | 510 ± 140 nM | 68.6 ± 0.43% | reduced susceptibility |
| N#Cc1ccc(-c2ccc3c(c2)SC(=N)N2CCCN=C32)cc1 [Compound 14] | > 10 µM | > 22.7 µM | 1210 ± 40 nM | 105 ± 0.47% | reduced susceptibility |
| c1cc2c(cc1-c1ccc3c(c1)SN1CCCN=C31)OCO2 [Compound 32] | > 10 µM | > 22.7 µM | 1850 ± 530 nM | 0.11 ± 0.03% | – |
| CC(C)(C)N=C1Sc2cc(-c3cc4ccccc4s3)ccc2C2=NCCCN12 [Compound 10] | > 10 µM | > 22.7 µM | 2770 ± 280 nM | -0.48 ± 0.07% | – |
| N=C1Sc2cc(-c3ccc4cnccc4c3)ccc2C2=NCCCN12 [Compound 5] | > 10 µM | > 22.7 µM | 1130 ± 50 nM | 26 ± 8.27% | – |
| CCc1cccc(-c2ccc3c(c2)SC(=N)N2CCCN=C32)c1 [Compound 25] | > 10 µM | > 22.7 µM | 1770 ± 830 nM | 0.01 ± 0.15% | – |
| COc1ccccc1-c1ccc2c(c1)SN1CCCN=C21 [Compound 42] | > 10 µM | > 22.7 µM | 540 ± 220 nM | 0.04 ± 0.15% | – |
| c1ccc(-c2ccc3c(c2)SN2CCCN=C32)cc1 [Compound 30] | > 10 µM | > 22.7 µM | 9670 ± 5090 nM | 63.6 ± 5.87% | reduced susceptibility |
| N=C1Sc2cc(/C=C/c3ccccc3)ccc2C2=NCCCN12 [Compound 8] | > 10 µM | > 22.7 µM | 630 ± 250 nM | 0.12 ± 0.21% | – |
| N=C1Sc2cc(-c3ccc4c(C(=O)OC(F)(F)F)c[nH]c4c3)ccc2C2=NCCCN12 [Compound 6] | > 10 µM | > 22.7 µM | 370 ± 50 nM | 104.4 ± 0.11% | reduced susceptibility |
| COC(=O)c1ccc(-c2ccc3c(c2)SN2CCCN=C32)cc1 [Compound 37] | > 10 µM | > 22.7 µM | 2780 ± 270 nM | -0.18 ± 0.05% | – |
| N=C1Sc2cc(-c3ccccc3)ccc2C2=NCCCN12 [Compound 12] | > 10 µM | > 22.7 µM | 1150 ± 70 nM | -0.22 ± 0.12% | – |
| COC(=O)c1cccc(-c2ccc3c(c2)SN2CCCN=C32)c1 [Compound 40] | > 10 µM | > 22.7 µM | 1720 ± 480 nM | -0.09 ± 0.08% | – |
